Measured values from patent US9675539B2, “Cosmetic and pharmaceutical compositions and methods using 2-decarboxy-2-phosphinico derivatives” (Duke University, priority 2000, dated 2017).

Molecular target: hFP receptor (Homo sapiens (Human), UniProt P43088)
Assay: Radioligand Binding Assay
Conditions: competition with 5 nM (3H) PGF2α on hFP membranes from transfected COS-7 cells; read-out: IC50 the PGF
Method: IC50 of a prostaglandin can be determined relative to PGF2α using the Radioligand Binding Assay.
In this assay, COS-7 cells are transiently transfected with the hFP recombinant plasmid using LipofectAMINE Reagent. Forty-eight hours later, the transfected cells are washed with Hank's Balanced Salt Solution (HBSS, without CaCl2, MgCl2, MgSO4, or phenol red). The cells are detached with versene, and HBSS is added. The mixture is centrifuged at 200 g for 10 minutes, at 4° C. to pellet the cells. The pellet is resuspended in Phosphate-Buffered Saline-EDTA buffer (PBS; 1 mM EDTA; pH 7.4; 4° C.). […] The mixture is centrifuged at 1000 g for 10 minutes at 4° C. The supernatant is centrifuged at 100,000 g for 60 minutes at 4° C. The pellet is resuspended to 1 mg protein/mL TME buffer (50 mM Tris; 10 mM MgCl2; 0.1 mM EDTA; pH 6.0; 4° C.) based on protein levels measured using the Pierce BCA Protein Assay kit. […] The membrane preparations are then stored at −80° C., until thawed for assay use.
The receptor competition binding assays are developed in a 96 well format. Each well contains 100 g of hFP membrane, 5 nM (3 H) PGF2α, and the various competing compounds in a total volume of 200 L. The plates are incubated at 23° C. for 1 hour. […] The plates are read on a Packard TOPCOUNT® Microplate Scintillation Counter (also available from Packard Instrument Co., Inc.)

hFP receptor, sequence (P43088 whole entry): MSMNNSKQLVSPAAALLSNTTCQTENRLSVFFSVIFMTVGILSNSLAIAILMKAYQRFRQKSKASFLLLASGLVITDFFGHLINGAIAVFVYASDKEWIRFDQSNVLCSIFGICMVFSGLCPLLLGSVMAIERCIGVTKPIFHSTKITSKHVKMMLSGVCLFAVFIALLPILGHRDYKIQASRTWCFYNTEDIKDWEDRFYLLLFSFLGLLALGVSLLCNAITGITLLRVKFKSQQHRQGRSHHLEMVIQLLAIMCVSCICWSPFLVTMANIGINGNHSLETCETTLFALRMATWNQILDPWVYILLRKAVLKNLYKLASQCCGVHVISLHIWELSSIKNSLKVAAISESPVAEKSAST

IC50: 114 nM
Structure (SMILES): CCCCCC(O)/C=C/[C@@H]1[C@@H](C/C=C\CCC[PH](=O)O)[C@@H](O)C[C@H]1O (stereo partly shown) [Example 1-2]
